# Results reported in patent publication US6518252B2, “Method of treating aquatic animals with an antimicrobial agent and chelating agent” (priority 2000, dated 2003).
# Where “and” joins values, the source holds several entries; their conditions need not be identical. Equal values may be shown once.
# Experiments:
# [1] = system: Ps. aeruginosa; test: Two-dimensional microtiter checkerboard, MIC and FIC of EDTA in 50 mM Tris and antibiotics; type: cell-based, Pseudomonas aeruginosa
# Procedure: (§1) Sabath, L. D, Antimicrob. Agents and Chem. 210-217. (1967) and Sparks et al., Vet. Res. Comm. 18, 241-249 (1994), incorporated herein by reference in their entireties. […] Then 0.05 ml of an 18-hour old culture of a test organism, containing 10^6 colony-forming units (CFU) ml, were added to each well. Controls for the culture and media were included in each plate. Plates were covered and incubated at 37° C. for 18-24 hours. […] To generate isobolograms, FICs of the two test solutions were plotted individually on the x-axis and y-axis to determine the effect of combining the two test solutions on bacterial growth. A line that curves away from the zero point and the coordinates indicated antagonism. […] Sabath, L. D, Antimicrob. Agents and Chem. 210-217. (1967), and incorporated herein by reference in their entireties. A numerical score or Fractional Inhibitory Concentration (FIC) index was determined.
# [2] = system: Staph. aureus; test: as above; type: cell-based, Staphylococcus aureus
# Procedure: as §1
# [3] = system: Ent. faecalis; test: as above; type: cell-based, Enterococcus faecalis
# Procedure: as §1
# [4] = system: surface ulcers of Koi; test: Treatment of Koi suffering from surface ulcers (Example 2); type: in vivo, Koi (Cyprinus carpio); details: antibiotics injected directly into the fish, before the bath treatment
# Procedure: All fish were housed in a communal “hospital tank” before treatment and moved to an isolation tank after each treatment. The temperature of the bath was adjusted to that of the hospital tank temperature, 24° C., and adequate aeration was supplied to the treatment tank.
# [5] = system: Aeromonas caviae; test: MIC and FIC of EDTA in 50 mM Tris and neomycin, Aeromonas isolated from ulcerated fish; type: cell-based; details: A. caviae
# Procedure: (§2) Sabath, L. D, Antimicrob. Agents and Chem. 210-217. (1967) and Sparks et al., Vet. Res. Comm. 18, 241-249 (1994), incorporated herein by reference in their entireties.
# (§3) Then 0.05 ml of an 18-hour old culture of a test organism, containing 10^6 colony-forming units (CFU) ml, were added to each well. Controls for the culture and media were included in each plate. Plates were covered and incubated at 37° C. for 18-24 hours.
# (§4) To generate isobolograms, FICs of the two test solutions were plotted individually on the x-axis and y-axis to determine the effect of combining the two test solutions on bacterial growth. A line that curves away from the zero point and the coordinates indicated antagonism. […] Sabath, L. D, Antimicrob. Agents and Chem. 210-217. (1967), and incorporated herein by reference in their entireties.
# (§5) A numerical score or Fractional Inhibitory Concentration (FIC) index was determined. The FIC index is equal to the sum of the values of FIC for the individual drugs: [formula]
# (§6) An FIC index greater than 1.0 indicated an antagonistic interaction, an FIC index of 1.0 indicated addition, and an FIC index of less than or equal to 0.5 indicated synergism between the two test agents.
# [6] = system: Aeromonas sobria; test: as above; type: cell-based; details: A. sobria
# Procedure: as §2, §3, §4, §5, §6
# [7] = system: Bacillus sp.; test: MIC of commercial chemical disinfectants or EDTA-Tris; type: cell-based; details: 1 x stock: EDTA-Tris 5 mM EDTA + 50 mM Tris-HCl, Glutracide 1:200, Magnaphen-100 1:400, BioSentry 904 1:256, Synergize 1:256, hydrogen peroxide 3%
# [8] = system: Staph. aureus; test: MIC and FIC of chemical disinfectants and EDTA-Tris; type: cell-based, Staphylococcus aureus
# Procedure: as §5, §6
# [9] = system: Ps. aeruginosa; test: as above; type: cell-based, Pseudomonas aeruginosa
# Procedure: as §5, §6
# [10] = system: P. mirabilis; test: as above; type: cell-based, Proteus mirabilis
# Procedure: as §5, §6
# [11] = system: E. coli; test: MIC of commercial chemical disinfectants or EDTA-Tris; type: cell-based; details: 1 x stock solutions as in footnote of Table 5
# [12] = system: S. enteritidis; test: MIC and FIC of chemical disinfectants and EDTA-Tris; type: cell-based
# Procedure: as §5, §6
# [13] = system: S. typhimurium 6578 (parent strain); test: as above; type: cell-based
# Procedure: as §5, §6
# [14] = system: S. typhimurium Avian (avian strain); test: as above; type: cell-based
# Procedure: as §5, §6
# [15] = system: S. typhimurium DT104 (multiple antibiotic resistant strain); test: as above; type: cell-based
# Procedure: as §5, §6
# [16] = system: S. typhimurium TRC1 (mar mutant); type: cell-based
# Procedure: as §5, §6
# [17] = system: B subtilis; test: FIC of chemical disinfectants and EDTA-Tris; type: cell-based; details: chemical disinfectant and EDTA-Tris
# Procedure: as §5, §6
# [18] = system: E. coli Av; test: FIC of chemical disinfectants and EDTA-Tris; type: cell-based; details: chemical disinfectant and EDTA-Tris
# Procedure: as §5, §6
# [19] = system: E. coli V-1; test: FIC of chemical disinfectants and EDTA-Tris; type: cell-based; details: chemical disinfectant and EDTA-Tris
# Procedure: as §5, §6
# [20] = system: Gram-negative bacteria; test: EDTA-Tris disinfectant combinations, summary; type: cell-based; details: most of the Gram-negative bacteria
# Procedure: as §5, §6
# Fractional inhibitory concentrations for EDTA-Tris disinfectant combinations (synergistic, additive, or antagonistic reactions) were determined for the test organisms. […]
# [21] = system: Gram-positive organisms; test: EDTA-Tris disinfectant combinations, summary; type: cell-based
# Procedure: as §5, §6
# [22] = system: Staphylococcus aureus; test: Antibiotic resistance profile; type: cell-based; details: Staphylococcus aureus test strain; further: key: R = resistant; I = intermediate; S = sensitive
# [23] = system: Pseudomonas aeruginosa; test: Antibiotic resistance profile; type: cell-based; details: Pseudomonas aeruginosa test strain; further: key: R = resistant; I = intermediate; S = sensitive
# [24] = system: Enterococcus faecalis; test: Antibiotic resistance profile; type: cell-based; details: Enterococcus faecalis test strain; further: key: R = resistant; I = intermediate; S = sensitive
# [25] = system: Staphylococcus aureus; test: Minimal Bactericidal Concentration (MBC), EDTA and neomycin in 50 mM Tris; type: cell-based
# [26] = system: Pseudomonas aeruginosa; test: as above; type: cell-based
# [27] = system: Enterococcus faecalis; test: as above; type: cell-based
# [28] = system: Aeromonas hydrophila; test: MIC and FIC of EDTA in 50 mM Tris and neomycin, Aeromonas isolated from ulcerated fish; type: cell-based; details: A. hydrophila
# Procedure: as §2, §3, §4, §5, §6
# [29] = 1 x stock solutions as in footnote of Table 5
# [30] = chemical disinfectant and EDTA-Tris
# [31] = 1 x stock solutions as in footnote of Table 6
molecule,measurement,setting,value
"NCC[C@H](O)C(=O)N[C@@H]1C[C@H](N)[C@@H](O[C@H]2O[C@H](CN)[C@@H](O)[C@H](O)[C@H]2O)[C@H](O)[C@H]1O[C@H]1O[C@H](CO)[C@@H](O)[C@H](N)[C@H]1O [Amikacin, amikacin, reference compound]","MIC, antibiotic individually administered","[1]; Ps. aeruginosa, alone",1 µg/mL
same,"MIC, antibiotic individually administered","[2]; Staph. aureus, alone",120 µg/mL
same,"MIC, antibiotic individually administered","[3]; Ent. faecalis, alone",2000 µg/mL
same,Healing of visible ulcers,[4],failed to heal visible ulcers
"CC1(C)S[C@@H]2[C@H](NC(=O)[C@H](N)c3ccccc3)C(=O)N2[C@H]1C(=O)O [Ampicillin, ampicillin, reference compound]","MIC, antibiotic individually administered","[1]; Ps. aeruginosa, alone",490 µg/mL
same,"MIC, antibiotic individually administered","[2]; Staph. aureus, alone",240 µg/mL
same,"MIC, antibiotic individually administered","[3]; Ent. faecalis, alone",1 µg/mL
C[C@H]1[C@H](NC(=O)/C(=N\OC(C)(C)C(=O)O)c2csc(N)n2)C(=O)N1S(=O)(=O)O [Azactam],Healing of visible ulcers,[4],failed to heal visible ulcers
CCN1CCN(c2cc3c(cc2F)c(=O)c(C(=O)O)cn3C2CC2)CC1 [Baytril],Healing of visible ulcers,[4],failed to heal visible ulcers
"O=C(N[C@H](CO)[C@H](O)c1ccc([N+](=O)[O-])cc1)C(Cl)Cl [Chloramphenicol, chloramphenicol, reference compound]","MIC, antibiotic individually administered","[2]; Staph. aureus, alone",390 µg/mL
same,"MIC, antibiotic individually administered","[3]; Ent. faecalis, alone",400 µg/mL
"O=C(O)CN(CCN(CC(=O)O)CC(=O)O)CC(=O)O [EDTA, ethylenediaminetetracetic acid]","MIC, individually administered EDTA","[1]; Ps. aeruginosa, EDTA in 50 mM Tris, alone",1250 µM
same,MIC,"[1]; Pseudomonas aeruginosa, read-out: MIC, individually administered EDTA",1250 µM
same,"MIC, individually administered EDTA","[2]; Staph. aureus, EDTA in 50 mM Tris, alone",1000 µM
same,MIC,"[2]; Staphylococcus aureus, read-out: MIC, individually administered EDTA",1000 µM
same,"MIC, individually administered EDTA","[3]; Ent. faecalis, EDTA in 50 mM Tris, alone",15630 µM
same,MIC,"[3]; Enterococcus faecalis, read-out: MIC, individually administered EDTA",15600 µM
same,"MIC, EDTA in 50 mM Tris alone",[5],<0.49
same,"MIC, EDTA in 50 mM Tris alone",[6],15.6
OO [Hydrogen peroxide],MIC,[7],0.05 dilution of stock solution
same,MIC,[8]; [29],0.02 dilution of stock solution
same,FIC,[8]; [30],1.48
same,Type of reaction (FIC class),[8]; [30],B (Antagonistic reaction (FIC > 1.0))
same,MIC,[9]; [29],0.09 dilution of stock solution
same,FIC,[9]; [30],0.37
same,Type of reaction (FIC class),[9]; [30],C (Synergistic reaction (FIC < 0.5))
same,MIC,[10]; [29],0.19 dilution of stock solution
same,FIC,[10]; [30],0.37
same,Type of reaction (FIC class),[10]; [30],C (Synergistic reaction (FIC < 0.5))
same,MIC,[11],0.12 dilution of stock solution
same,MIC,[12]; [31],0.005 dilution of stock solution
same,FIC,[12]; [30],0.38
same,Type of reaction (FIC class),[12]; [30],C (Synergistic reaction (FIC < 0.5))
same,MIC,[13]; [31],0.005 dilution of stock solution
same,FIC,[13]; [30],0.5
same,Type of reaction (FIC class),[13]; [30],D (Synergistic reaction (FIC <: 0.5))
same,MIC,[14]; [31],0.005 dilution of stock solution
same,FIC,[14]; [30],0.63
same,Type of reaction (FIC class),[14]; [30],C (Additive reaction (FIC :> 0.5 to < 1.0))
same,MIC,[15]; [31],0.005 dilution of stock solution
same,FIC,[15]; [30],0.75
same,Type of reaction (FIC class),[15]; [30],C (Additive reaction (FIC :> 0.5 to < 1.0))
same,MIC,[16]; [31],0.005 dilution of stock solution
same,FIC,[16]; [30],0.5
same,Type of reaction (FIC class),[16]; [30],D (Synergistic reaction (FIC <: 0.5))
same,FIC,[17],1.0
same,Type of reaction (FIC class),[17],B (Additive reaction (FIC > 0.5 to < 1.0))
same,FIC,[18],0.50
same,Type of reaction (FIC class),[18],A (Synergistic reaction (FIC ˜ 0.5))
same,FIC,[19],0.53
same,Type of reaction (FIC class),[19],C (Additive reaction (FIC > 0.5 to < 1.0))
same,Effect of EDTA-Tris on the antimicrobial effect of the disinfectant,[20],potentiated (synergistic or additive)
same,Effect of EDTA-Tris on the antimicrobial effect of the disinfectant,[21],did not react uniformly
"CN(C)[C@@H]1C(O)=C(C(N)=O)C(=O)[C@@]2(O)C(O)=C3C(=O)c4c(O)cccc4[C@@](C)(O)[C@H]3[C@H](O)[C@@H]12 [Oxytetracycline, oxytetracycline, reference compound]","MIC, antibiotic individually administered","[1]; Ps. aeruginosa, alone",3 µg/mL
same,"MIC, antibiotic individually administered","[2]; Staph. aureus, alone",0.1 µg/mL
same,"MIC, antibiotic individually administered","[3]; Ent. faecalis, alone",50 µg/mL
"CN[C@H](CC(C)C)C(=O)N[C@H]1C(=O)N[C@@H](CC(N)=O)C(=O)N[C@H]2C(=O)N[C@H]3C(=O)N[C@H](C(=O)N[C@H](C(=O)O)c4cc(O)cc(O)c4-c4cc3ccc4O)[C@H](O)c3ccc(c(Cl)c3)Oc3cc2cc(c3O[C@@H]2O[C@H](CO)[C@@H](O)[C@H](O)[C@H]2O[C@H]2C[C@](C)(N)[C@H](O)[C@H](C)O2)Oc2ccc(cc2Cl)[C@H]1O [Va, vancomycin]",Antibiotic resistance profile,[22],S
same,Antibiotic resistance profile,[23],R
same,Antibiotic resistance profile,[24],R
gentamicin [Gm],Antibiotic resistance profile,[22],S
same,Antibiotic resistance profile,[23],I
same,Antibiotic resistance profile,[24],R
neomycin [reference compound],Antibiotic resistance profile,[22],R
same,Antibiotic resistance profile,[23],R
same,Antibiotic resistance profile,[24],R
same,"MIC, antibiotic individually administered","[1]; Ps. aeruginosa, alone",1000 µg/mL
same,"MIC, antibiotic individually administered","[2]; Staph. aureus, alone",3130 µg/mL
same,"MIC, antibiotic individually administered","[3]; Ent. faecalis, alone",3130 µg/mL
same,Decrease of MBC value when combined compared to individually administered,"[25]; Staph. aureus, EDTA and neomycin combined",about 50% and 50%
same,"MBC, neomycin co-administered","[25]; Staphylococcus aureus, co-administered with EDTA in 50 mM Tris",1560 µg/mL
same,"MBC, neomycin individually administered","[25]; Staphylococcus aureus, in 50 mM Tris",3130 µg/mL
same,Decrease of MBC value when combined compared to individually administered,"[26]; Ps. aeruginosa, EDTA and neomycin combined",99.2%
same,"MBC, neomycin co-administered","[26]; Pseudomonas aeruginosa, co-administered with EDTA in 50 mM Tris",40 µg/mL
same,"MBC, neomycin individually administered","[26]; Pseudomonas aeruginosa, in 50 mM Tris",5000 µg/mL
same,Decrease of MBC value when combined compared to individually administered,"[27]; Ent. faecalis, EDTA and neomycin combined",75%
same,"MBC, neomycin co-administered","[27]; Enterococcus faecalis, co-administered with EDTA in 50 mM Tris",6250 µg/mL
same,"MBC, neomycin individually administered","[27]; Enterococcus faecalis, in 50 mM Tris",25000 µg/mL
same,"MIC, neomycin alone",[5],12.5 µg/mL
same,"MIC, neomycin alone",[28],200 µg/mL
same,"MIC, neomycin alone",[6],12.5 µg/mL
